Measured values as given in patent US20180238860A1, “INDIVIDUAL METHOD PREDICTIVE OF THE DNA-BREAKING GENOTOXIC EFFECTS OF CHEMICAL OR BIOCHEMICAL AGENTS” (priority 2015, published 2018).

Tests used:
Assay type in all cases: cell-based, human
08HNG cells [1] = experiment: pH2AX foci 24 h after contacting, 08HNG
Description: (§1) In one embodiment, on receipt, the tissue sample (typically the biopsy) is established in the form of an amplifiable cell line without a viral or chemical transformation agent according to an ancillary procedure well known to culture laboratories, as underlined by the publication of Elkind et al. “The radiobiology of cultured mammalian cell”, Gordon and Breach (1967). Once the number of cells is sufficient (typically after 1 to 3 weeks), the first experiments are carried out using the process according to the invention. A cell sample is prepared: The cells are inoculated on glass coverslips in Petri dishes. A portion of these coverslips are contaminated with metals or pesticides or any other DNA-breaking chemical or biochemical agent at different concentrations. A further portion is not contaminated; it represents the spontaneous state. During contamination, the cells remain in the culture incubator at 37° C.
(§2) For the contaminated cells, characteristics are acquired corresponding to the state after an incubation time with the DNA-breaking chemical or biochemical agent. Said characteristics are represented by foci corresponding to the marker pH2AX. The cells on glass coverslips are then fixed, lysed and hybridized. The following procedure, known per se (Bodgi et al, “A single formula to describe radiation-induced protein relocalization: towards a mathematical definition of individual radiosensitivity”, J Theor Biol. 21 p 333:135-45.2013):
(§3) the cells are fixed in 3% paraformaldehyde and 2% sucrose for 15 minutes at ambient temperature and permeabilized in 20 mM HEPES buffer solution (4-(2-hydroxyethyl)-1-piperazine ethane sulfonic acid) at pH 7.4, 50 mM NaCl, 3 mM MgCl2, 300 mM sucrose, 0.5% Triton X-100 (a non-ionic surfactant having the formula t-Oct-C6H4-(OCH2CH2)×OH where x=9-10, CAS No. 9002-93-1, supplied for example by Sigma Aldrich) for 3 minutes. The glass coverslips are then washed in phosphate buffer saline (known as the acronym PBS) before immunological staining. The incubation took place for 40 min at 37° C. in PBS supplemented with 2% bovine serum albumin (known as the acronym BSA or fraction V, supplied for example by Sigma Aldrich) and was followed by a wash with PBS. Anti-pH2AX primary antibodies are used at a concentration of 1:800. […]
(§4) The results are acquired using these coverslips on an immunofluorescence microscope (Olympus model for example). The reading may be direct (typically by counting the foci on at least 50 cells in G0/G1 for each point) or using dedicated image analysis software, or on an automated microscope; preferably the software or automated microscope methods are calibrated with manual determinations. […]

08HNG cells [2] = experiment: Micronuclei per 100 cells 24 h after contacting, 08HNG
Description: as §1
(§5) the cells are fixed in 3% paraformaldehyde and 2% sucrose for 15 minutes at ambient temperature and permeabilized in 20 mM HEPES buffer solution (4-(2-hydroxyethyl)-1-piperazine ethane sulfonic acid) at pH 7.4, 50 mM NaCl, 3 mM MgCl2, 300 mM sucrose, 0.5% Triton X-100 (a non-ionic surfactant having the formula t-Oct-C6H4-(OCH2CH2)×OH where x=9-10, CAS No. 9002-93-1, supplied for example by Sigma Aldrich) for 3 minutes. The glass coverslips are then washed in phosphate buffer saline (known as the acronym PBS) before immunological staining. The incubation took place for 40 min at 37° C. in PBS supplemented with 2% bovine serum albumin (known as the acronym BSA or fraction V, supplied for example by Sigma Aldrich) and was followed by a wash with PBS. Anti-pH2AX primary antibodies are used at a concentration of 1:800. The incubations with anti-mouse FITC or anti-rabbit TRITC secondary antibodies (1:100, supplied by Sigma Aldrich) were performed at 37° C. in 2% BSA for 20 minutes. Glass coverslips were treated with Vectashield™ containing DAPI (4,6-Diamidino-2-phenylindole) to label the nucleus. Staining with DAPI also makes it possible, indirectly, to determine the number of cells in phase G1 (nuclei with homogenous DAPI staining), in phase S (nuclei with numerous pH2AX foci), in phase G2 (nuclei with heterogeneous DAPI staining) and metaphases (visible chromosomes).
(§6) Counterstaining with DAPI (a DNA marker known to those skilled in the art) makes it possible to locate the nucleus to situate the cytoplasmic or nuclear location to quantify the micronuclei, which are complementary cell markers to the data on the foci.
(§7) The tables hereinafter summarize the results of numerous experiments which were carried out as described in the “Detailed description” section above. […]

01PAU cells [3] = experiment: pH2AX foci 24 h after contacting, 01PAU
Description: as §1, §2, §3, §4

01PAU cells [4] = experiment: Micronuclei per 100 cells 24 h after contacting, 01PAU
Description: as §1, §5, §6, §7

Compound: c1ccc2[nH]c(-c3cscn3)nc2c1 [Thiobendazole]
- pH2AX (08HNG cells [1]; 0.3 μM): 1.8 foci
- pH2AX (08HNG cells [1]; 1 μM): 2 foci
- pH2AX (08HNG cells [1]; 3 μM): 4.3 foci
- pH2AX (08HNG cells [1]; 10 μM): 6 foci
- Micronuclei (08HNG cells [2]; 0.3 μM): 2 per 100 cells
- Micronuclei (08HNG cells [2]; 1 μM): 4 per 100 cells
- Micronuclei (08HNG cells [2]; 3 μM): 10 per 100 cells
- Micronuclei (08HNG cells [2]; 10 μM): 10 per 100 cells

Compound: CC1(C)C(C=C(Cl)Cl)C1C(=O)OCc1cccc(Oc2ccccc2)c1 (stereo not shown) [Permethrin]
- pH2AX (01PAU cells [3]; 0.3 μM): 0.1 foci
- pH2AX (01PAU cells [3]; 1 μM): 0.2 foci
- pH2AX (01PAU cells [3]; 5 μM): 1.3 foci
- pH2AX (01PAU cells [3]; 10 μM): 1.8 foci
- Micronuclei (01PAU cells [4]; 0.3 μM): 2 per 100 cells
- Micronuclei (01PAU cells [4]; 1 μM): 2 per 100 cells
- Micronuclei (01PAU cells [4]; 5 μM): 4 per 100 cells
- Micronuclei (01PAU cells [4]; 10 μM): 6 per 100 cells
